This note sets out measurements from article PMC10692477 (Acta Pharmaceutica Sinica. B, 2023).

“And” between values parts separate entries of the source, which are not always exact repeats. Equal entries are not always repeated. A value given as a limit tells only on which side of the number the result lay.

One series addresses T1, AXL kinase (Homo sapiens, UniProt P30530).
T1 sequence (P30530 26-894): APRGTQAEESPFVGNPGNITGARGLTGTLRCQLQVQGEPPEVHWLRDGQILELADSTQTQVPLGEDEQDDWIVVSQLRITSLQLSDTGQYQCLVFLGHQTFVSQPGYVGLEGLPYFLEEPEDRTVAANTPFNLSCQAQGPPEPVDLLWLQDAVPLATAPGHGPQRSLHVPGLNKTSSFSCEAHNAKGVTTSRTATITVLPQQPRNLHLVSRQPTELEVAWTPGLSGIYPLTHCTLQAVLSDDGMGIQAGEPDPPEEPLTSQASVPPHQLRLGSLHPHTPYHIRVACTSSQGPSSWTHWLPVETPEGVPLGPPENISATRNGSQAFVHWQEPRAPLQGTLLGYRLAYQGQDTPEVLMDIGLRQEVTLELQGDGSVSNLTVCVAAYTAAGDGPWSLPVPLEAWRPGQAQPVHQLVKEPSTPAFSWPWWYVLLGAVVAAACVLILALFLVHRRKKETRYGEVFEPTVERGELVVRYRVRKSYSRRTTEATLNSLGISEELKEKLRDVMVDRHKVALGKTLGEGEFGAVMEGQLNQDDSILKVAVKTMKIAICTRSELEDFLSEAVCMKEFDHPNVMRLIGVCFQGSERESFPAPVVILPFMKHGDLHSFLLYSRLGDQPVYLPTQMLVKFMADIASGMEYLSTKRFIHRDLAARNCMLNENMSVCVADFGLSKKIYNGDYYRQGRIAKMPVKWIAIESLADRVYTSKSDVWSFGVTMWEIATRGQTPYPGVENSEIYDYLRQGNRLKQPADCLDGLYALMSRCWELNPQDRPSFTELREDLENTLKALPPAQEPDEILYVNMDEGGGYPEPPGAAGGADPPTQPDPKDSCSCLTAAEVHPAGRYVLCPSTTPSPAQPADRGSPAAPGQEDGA
The series is described as follows: AXL kinase inhibition, ELISA. It is filed as biochemical. The settings on record: for inhibition at 0.1 µM: read-out: inhibition rate AXL kinase; for IC50: IC50 AXL kinase, ELISA, mean ± SD of two independent experiments.

The next series relates to BaF3/TEL-AXL cells. Put plainly: BaF3/TEL-AXL cell viability. The settings on record: 48 h, read-out: IC50 Cell viability. It is filed as cell-based.
A short description of series [1]: Pharmacokinetics in ICR mice. The class given is in vivo. The settings on record: mouse, serum.

In the case of `O=C(Nc1ccc(Oc2ccc3nncn3n2)cc1)c1c2n(n(-c3ccccc3)c1=O)CCCC2` [Compound 12], the inhibition at 0.1 µM on AXL kinase is -17.7%.
Same read-out and setting: the figure for `O=C(Nc1ccc(Oc2ccn3nccc3n2)cc1)c1c2n(n(-c3ccccc3)c1=O)CCCC2` [Compound 13] is -18.9%.
For `COc1nc(OC)nc(Oc2ccc(NC(=O)c3c4n(n(-c5ccccc5)c3=O)CCCC4)cc2)n1` [Compound 14], the inhibition at 0.1 µM at AXL kinase is -6%.
With `COc1cc2ncnc(Oc3ccc(NC(=O)c4c5n(n(-c6ccccc6)c4=O)CCCC5)cc3F)c2cc1OC` [Compound 16], the IC50 in the series with BaF3/TEL-AXL cells is < 0.1 nM.
Still for that read-out and setting: the figure for `COc1cc2ncnc(Oc3ccc(NC(=O)c4c5n(n(-c6ccccc6F)c4=O)CCCC5)cc3F)c2cc1OC` [Compound 17] is < 0.1 nM; for `COc1cc2ncnc(Oc3ccc(NC(=O)c4c5n(n(-c6ccc(F)cc6)c4=O)CCCC5)cc3F)c2cc1OC` [Compound 19] it is < 0.1 nM.
Regarding `COc1cc2ncnc(Oc3ccc(NC(=O)c4c5n(n(-c6ccccc6Cl)c4=O)CCCC5)cc3F)c2cc1OC` [Compound 20], the IC50 amounted to 10.5 ± 0.5 nM against AXL kinase and 7 ± 4.2 nM in the series on BaF3/TEL-AXL cells.
At AXL kinase, `COc1cc2ncnc(Oc3ccc(NC(=O)c4c5n(n(-c6ccc(Cl)cc6)c4=O)CCCC5)cc3F)c2cc1OC` [Compound 21] had an IC50 of 42.6 ± 6.2 nM.
For the molecule `COc1cc2ncnc(Oc3ccc(NC(=O)c4c5n(n(-c6ccccc6C)c4=O)CCCC5)cc3F)c2cc1OC` [Compound 22], the values for the 50% inhibitory concentration (IC50) against AXL kinase and in the series with BaF3/TEL-AXL cells were 15.7 ± 1.7 nM and 7.6 ± 4.1 nM, respectively.
In the case of `COc1cc2ncnc(Oc3ccc(NC(=O)c4c5n(n(-c6ccc(C)cc6)c4=O)CCCC5)cc3F)c2cc1OC` [Compound 23], the IC50 on AXL kinase was found to be 27.3 ± 2.6 nM.
With `COc1cc2ncnc(Oc3ccc(NC(=O)c4c5n(n(-c6cc(F)ccc6F)c4=O)CCCC5)cc3F)c2cc1OC` [Compound 24], the IC50 with BaF3/TEL-AXL cells was < 0.1 nM. Also, in series [1] (iv, 5 mg/kg), the AUC(0-inf) came out at 49100 ng·h/mL, the area under the curve AUC(0-t) stood at 48900 ng·h/mL, the clearance worked out at 1.7 mL/min/kg and the half-life is 3.38 h. Moreover, in series [1] (po, 10 mg/kg), the AUC(0-inf) was 14200 ng·h/mL, the AUC(0-t) worked out at 13500 ng·h/mL, the Cmax was 1490 ng/mL and the Tmax turned out to be 2 h. In series [1] (po, 10 mg/kg), this molecule showed a bioavailability of 13.8% and a half-life of 6.77 h.
On AXL kinase, `COc1cc2ncnc(Oc3ccc(NC(=O)c4c5n(n(-c6cc(C)ccc6C)c4=O)CCCC5)cc3F)c2cc1OC` [Compound 25] registered a half-inhibitory concentration (IC50) of 78.4 ± 2.1 nM.
Take `COc1cc2ncnc(Oc3ccc(NC(=O)c4c5n(n(-c6ccc(F)cc6F)c4=O)CCCC5)cc3F)c2cc1OC` [Compound 27]: at AXL kinase, the IC50 turned out to be 25.1 ± 1.6 nM.
As for `COc1cc2ncnc(Oc3ccc(NC(=O)c4c5n(n(-c6ccccc6)c4=O)CCCC5)c(F)c3)c2cc1OC` [Compound 29], the IC50 against AXL kinase came to 10 ± 1.4 nM; in the series on BaF3/TEL-AXL cells, 2.3 ± 0.4 nM.
As to `COc1cc2ncnc(Oc3ccc(NC(=O)c4c5n(n(-c6ccccc6F)c4=O)CCCC5)c(F)c3)c2cc1OC` [Compound 30], the IC50 on AXL kinase was 13.4 ± 0.8 nM; with BaF3/TEL-AXL cells, < 0.1 nM.
At AXL kinase, `COc1cc2ncnc(Oc3ccc(NC(=O)c4c5n(n(-c6ccc(F)cc6)c4=O)CCCC5)c(F)c3)c2cc1OC` [Compound 31] had an IC50 of 30.5 ± 4.9 nM.
`COc1cc2ncnc(Oc3ccc(NC(=O)c4c5n(n(-c6cc(F)ccc6F)c4=O)CCCC5)c(F)c3)c2cc1OC` [Compound 32] had an IC50 on AXL kinase of 37 ± 1.4 nM.
In the case of `COc1cc2ncnc(Oc3ccc(NC(=O)c4c5n(n(-c6ccccc6)c4=O)CCCC5)cc3Cl)c2cc1OC` [Compound 33], the results for the half-maximal inhibitory concentration (IC50) against AXL kinase and in the series on BaF3/TEL-AXL cells were 16.9 ± 2.5 nM and 1650 ± 444 nM, respectively.
On AXL kinase, `COc1cc2ncnc(Oc3ccc(NC(=O)c4c5n(n(-c6ccccc6F)c4=O)CCCC5)cc3Cl)c2cc1OC` [Compound 34] had a half-inhibitory concentration (IC50) of 30.9 ± 1.4 nM.
Same read-out and setting: the figure for `COc1cc2ncnc(Oc3ccc(NC(=O)c4c5n(n(-c6ccc(F)cc6)c4=O)CCCC5)cc3Cl)c2cc1OC` [Compound 35] is 19.6 ± 1.9 nM.
For `COc1cc2ncnc(Oc3ccc(NC(=O)c4c5n(n(-c6cc(F)ccc6F)c4=O)CCCC5)cc3Cl)c2cc1OC` [Compound 36], the values for the IC50 against AXL kinase and with BaF3/TEL-AXL cells were 6.6 ± 2.9 nM and 3630 ± 494 nM, respectively.
Turning to `COc1cc2ncnc(Oc3ccc(NC(=O)c4c5n(n(-c6ccccc6)c4=O)CCCC5)cc3C)c2cc1OC` [Compound 37], on AXL kinase, the inhibition at 0.1 µM was determined as 23.2%.
Consider `COc1cc2ncnc(Oc3ccc(NC(=O)c4c5n(n(-c6ccccc6F)c4=O)CCCC5)cc3C)c2cc1OC` [Compound 38], for which, on AXL kinase, the inhibition at 0.1 µM was 32.3%.
Same read-out and setting: under `COc1cc2ncnc(Oc3ccc(NC(=O)c4c5n(n(-c6ccc(F)cc6)c4=O)CCCC5)cc3C)c2cc1OC` [Compound 39] stands 15.6%; under `COc1cc2ncnc(Oc3ccc(NC(=O)c4c5n(n(-c6cc(F)ccc6F)c4=O)CCCC5)cc3C)c2cc1OC` [Compound 40], 35.7%; under `COc1cc2ncnc(Oc3ccc(NC(=O)c4c5n(n(-c6ccccc6)c4=O)CCCC5)cc3OC)c2cc1OC` [Compound 41], 56.4%.
As to `COc1cc2ncnc(Oc3ccc(NC(=O)c4c5n(n(-c6ccccc6F)c4=O)CCCC5)cc3OC)c2cc1OC` [Compound 42], at AXL kinase, the inhibition at 0.1 µM worked out at 28%.
`COc1cc2ncnc(Oc3ccc(NC(=O)c4c5n(n(-c6ccc(F)cc6)c4=O)CCCC5)cc3OC)c2cc1OC` [Compound 43]: the inhibition at 0.1 µM on AXL kinase is 19.9%.
Consider `COc1cc2ncnc(Oc3ccc(NC(=O)c4c5n(n(-c6ccccc6)c4=O)CCCC5)cc3C(F)(F)F)c2cc1OC` [Compound 45], for which the inhibition at 0.1 µM at AXL kinase stood at 59.4%.
As to `COc1cc2ncnc(Oc3ccc(NC(=O)c4c5n(n(-c6ccccc6F)c4=O)CCCC5)cc3)c2cc1OC` [Compound 49], the inhibition at 0.1 µM on AXL kinase was 47.9%.
Regarding `COc1cc2ncnc(Oc3ccc(NC(=O)c4c5n(n(-c6cc(F)ccc6F)c4=O)CCCC5)cc3)c2cc1OC` [Compound 50], in the series on BaF3/TEL-AXL cells, the half-inhibitory concentration (IC50) was determined as 7.8 ± 0.7 nM.
With `COc1cc2ncnc(Oc3ccc(NC(=O)c4c5n(n(-c6ccccc6)c4=O)CCCC5)nc3)c2cc1OC` [Compound 51], the figures for the 50% inhibitory concentration (IC50) against AXL kinase and with BaF3/TEL-AXL cells were 16.8 ± 3.5 nM and 3.3 ± 1.4 nM, respectively.
As to `COc1cc2ncnc(Oc3ccc(NC(=O)c4c5n(n(-c6ccccc6)c4=O)CCCC5)c4ccccc34)c2cc1OC` [Compound 52], the inhibition at 0.1 µM at AXL kinase came out at 41%.
In the case of `COc1cc2ncnc(Oc3ccc(NC(=O)c4c5n(n(-c6ccccc6F)c4=O)CCCC5)c4ccccc34)c2cc1OC` [Compound 53], the inhibition at 0.1 µM on AXL kinase is 41.4%.
On the same count and under the same terms, under `COc1cc2ncnc(Oc3ccc(NC(=O)c4c5n(n(-c6ccc(F)cc6)c4=O)CCCC5)c4ccccc34)c2cc1OC` [Compound 54] stands 39%; under `COc1cc2ncnc(Oc3ccc(NC(=O)c4c5n(n(-c6cc(F)ccc6F)c4=O)CCCC5)c4ccccc34)c2cc1OC` [Compound 55], 50.4%.
For `COc1cc2nccc(Oc3ccc(NC(=O)c4c5n(n(-c6ccccc6)c4=O)CCCC5)cc3)c2cc1OC` [Compound 56], the IC50 at AXL kinase is 4 ± 0.4 nM; in the series on BaF3/TEL-AXL cells, 1 ± 0.2 nM.
Turning to `COc1cc2nccc(Oc3ccc(NC(=O)c4c5n(n(-c6ccccc6)c4=O)CCCC5)cc3F)c2cc1OC` [Compound 57], the IC50 with BaF3/TEL-AXL cells is < 0.1 nM.
Take `COc1cc2nccc(Oc3ccc(NC(=O)c4c5n(n(-c6ccccc6)c4=O)CCCC5)cn3)c2cc1OC` [Compound 58]: the inhibition at 0.1 µM on AXL kinase was determined as 50.9%.
In the case of `COc1cc2nccc(Oc3ccc(NC(=O)c4c5n(n(-c6cc(F)ccc6F)c4=O)CCCC5)cc3)c2cc1OC` [Compound 60], the concentration for half-maximal inhibition (IC50) at AXL kinase was < 10 nM and 1.2 nM; in the series on BaF3/TEL-AXL cells, < 0.2 nM.
For `COc1cc2nccc(Oc3ccc(NC(=O)c4c5n(n(-c6cc(F)ccc6Cl)c4=O)CCCC5)cc3)c2cc1OC` [Compound 61], the IC50 is < 10 nM and 0.7 nM on AXL kinase; < 0.2 nM with BaF3/TEL-AXL cells.
Consider `COc1cc2nccc(Oc3ccc(NC(=O)c4c5n(n(-c6ccc(F)cc6F)c4=O)CCCC5)cc3)c2cc1OC` [Compound 62], for which the half-inhibitory concentration (IC50) is < 10 nM and 6.1 nM at AXL kinase; 0.7 ± 0.3 nM in the series on BaF3/TEL-AXL cells.
With `COc1cc2nccc(Oc3ccc(NC(=O)c4c5n(n(-c6ccc(F)cc6Cl)c4=O)CCCC5)cc3)c2cc1OC` [Compound 63], the 50% inhibitory concentration (IC50) against AXL kinase was < 10 nM and 2.3 nM; in the series with BaF3/TEL-AXL cells, < 0.2 nM.
